One may read the mass density as mass per unit of volume.

Several values for one entry are separate records, joined by “and”; a condition that tells them apart may be missing. Equal values may be shown once. ± gives the expanded uncertainty stated by the source.

The conditions of data set [1]: 298.15 K; 101.33 kPa; Liquid; Vibrating tube method.
The nature of data set [2]: xn = mol fraction of the nth substance listed. The settings on record: 298.15 K, 101 kPa, Liquid, Vibrating tube method.

Regarding `C1CCCCC1` [cyclohexane], the mass density in data set [1] worked out at 773.814 ± 2 kg/m3.

Regarding `CCO` [ethanol], in data set [1], the mass density stood at 785.106 ± 2 kg/m3.

In the case of `CN(C)C=O` [dimethylformamide], the mass density in data set [1] stood at 943.827 ± 2 kg/m3.

Turning to `CN(C)C=O` [dimethylformamide] + C1CCCCC1, the mass density turned out to be 773.912 ± 2 kg/m3 in data set [2] (x1 = 0.0013); 774.059 ± 2 kg/m3 in data set [2] (x1 = 0.0032); 774.39 ± 2 kg/m3 in data set [2] (x1 = 0.00735); 774.433 ± 2 kg/m3 in data set [2] (x1 = 0.00767); 774.963 ± 2 kg/m3 in data set [2] (x1 = 0.0142); 775.4 ± 2 kg/m3 in data set [2] (x1 = 0.0191). In addition, the mass density in data set [2] (x1 = 0.0404) is 777.361 ± 2 kg/m3; in data set [2] (x1 = 0.05), 778.28 ± 2 kg/m3 and 778.287 ± 2 kg/m3 and 778.289 ± 2 kg/m3; in data set [2] (x1 = 0.0554), 778.816 ± 2 kg/m3; in data set [2] (x1 = 0.8496), 906.747 ± 2 kg/m3; in data set [2] (x1 = 0.8504) it was 906.951 ± 2 kg/m3; in data set [2] (x1 = 0.8533), 907.513 ± 2 kg/m3. Further, the mass density in data set [2] (x1 = 0.8999) was 918.584 ± 2 kg/m3; in data set [2] (x1 = 0.9245) it was 924.576 ± 2 kg/m3; in data set [2] (x1 = 0.969), 935.786 ± 2 kg/m3.

For the origin of these results see the NIST ThermoML archive (doi:10.1016/j.fluid.2014.01.046).
